According to patent US10704024B2, “Method for producing mesenchymal cells with promoted c-MPL receptor expression on cell surface” (AdipoSeeds, Inc., priority 2015, dated 2020):

Experiments:
[1] = tested on: cell population of preadipocytes (TPO+); test: Differentiation induction of preadipocytes into megakaryocytes/platelets in MKLI medium; CD41 positive cells by flow cytometry; assay type: cell-based, human
Method: In order to check whether “cell population of preadipocytes (TPO+)” obtained in Example 1 can be actually used for efficient production of megakaryocytes/platelets (megakaryocyte and/or platelet), differentiation of preadipocytes into megakaryocyte/platelets was induced in accordance with the method described in Patent Document 1.
A culture dish was coated with collagen and then a culture medium was added to the dish. As the culture medium, MKLI medium (megakaryocyte lineage induction medium) known as a medium which can induce differentiation of hematopoietic stem cells into megakaryocytes/platelets, was used. […]
The “cell population of preadipocytes (TPO+)” obtained in Example 1 was cultured in MKLI medium as mentioned above at 37° C. and in the conditions of a CO2 concentration of 5% for 7 days. After culture, the cell population was separately taken and the ratio (%) of CD41 (specific marker of megakaryocytes or platelets) positive cells in the cell population was determined. […]
In contrast, the ratio of CD41 positive cells in the “cell population of preadipocytes (TPO−)” obtained in Example 1 was determined by flow cytometry. […]

CMK cells [2] = conditions: cited from earlier work
CMK cells [3] = conditions: luciferase gene ligated downstream of the promoter; cited from earlier work
[4] = tested on: Human primary culture preadipocytes (HPAd); test: Culture of preadipocytes in basic medium with TPO; c-MPL receptor positive cells by flow cytometry and immunostaining; assay type: cell-based
Method: In order to check whether expression of a c-MPL receptor on a cell surface of a mesenchymal cell is promoted or not, the following culture experiment was carried out by culturing mesenchymal cells in a mesenchymal cell culturing basic medium comprising a c-MPL receptor active substance. Note that, in the culture experiment, preadipocytes were used as the mesenchymal cells.
Human primary culture preadipocytes (Human Preadipocytes: HPAd) manufactured by CELL APPLICATIONS were prepared. A culture dish was coated with collagen and then a culture medium was added to the dish. As the culture medium, DMEM medium (Dulbecco's Modified Eagle's Medium, manufactured by Life Technology Co.), to which a 10% fetal bovine serum (manufactured by Sigma), a 1% non-essential amino acid(s) (manufactured by Life Technology Co.), a 100 U/mL penicillin-streptomycin solution (manufactured by Life Technology Co.) and 50 ng/mL recombinant human TPO (manufactured by R&D Systems) were added, was used. The preadipocytes were cultured in the culture medium at 37° C. for 3 days. […] The preadipocytes (hereinafter referred to as “the cell population of preadipocytes (TPO+)”) were labeled with a fluorescence-labeled anti c-MPL antibody (manufactured by BD Bioscience), and fluorescence was measured by flow cytometry. When the ratio of c-MPL receptor positive cells was determined in this manner, the ratio was 3.68±0.39%. Note that, the cell population of preadipocytes (TPO+) was immuno-stained with a “fluorescence-labeled anti c-MPL antibody” and “DAPI (4′,6-diamidino-2-phenylindole)”. In the right panel, cells emitting fluorescence derived from the fluorescence-labeled anti c-MPL antibody are observed around the circular fluorescence emitted from nuclei stained with DAPI.
In contrast, the preadipocytes (hereinafter referred to as “cell population of preadipocytes (TPO−)”) were cultured in the same method except that recombinant human TPO was not added to a culture medium. When the ratio of the c-MPL receptor positive cells was determined by flow cytometry, the ratio was 0.67±0.12%. […]

Substance: thrombopoietin [TPO]
- number of megakaryocytes/platelets produced relative to preadipocytes cultured in medium not comprising recombinant TPO ([1]; TPO+ vs TPO− preadipocytes): about 1.7 times
- ratio of CD41 positive cells in the cell population ([1]; preadipocytes pre-cultured with TPO, then MKLI medium 37° C., 5% CO2, 7 days, FITC-labeled anti CD41 antibody, flow cytometry): 28.5±2.1%
- expression of a c-MPL receptor on the surface of CMK cells (CMK cells [2]): reduces expression
- activity of the promotor of a c-MPL receptor gene (CMK cells [3]): induced
- ratio of c-MPL receptor positive cells ([4]; 50 ng/mL recombinant human TPO, 37° C., 3 days, fluorescence-labeled anti c-MPL antibody, flow cytometry): 3.68±0.39%
- increase of the ratio of c-MPL receptor positive cells relative to the case where TPO is not added ([4]; TPO added to culture medium vs not added): about 5.5 time
- c-MPL receptor positive cells by immunostaining (FIG. 1, right panel) ([4]; TPO added, 3 days, fluorescence-labeled anti c-MPL antibody and DAPI): a large number of the cells, i.e., c-MPL receptor positive cells are present
